# Assays:
# human TYRO3 = molecular target: T1, human TYRO3 (Homo sapiens, UniProt Q06418); experiment: HTRF KinEASE-TK biochemical potency assay, TYRO3; settings: 1 nM TYRO3, 700 μM ATP, 800 nM TK Substrate-biotin
# T1 construct: purchased Invitrogen
# T1 sequence (Q06418 41-890): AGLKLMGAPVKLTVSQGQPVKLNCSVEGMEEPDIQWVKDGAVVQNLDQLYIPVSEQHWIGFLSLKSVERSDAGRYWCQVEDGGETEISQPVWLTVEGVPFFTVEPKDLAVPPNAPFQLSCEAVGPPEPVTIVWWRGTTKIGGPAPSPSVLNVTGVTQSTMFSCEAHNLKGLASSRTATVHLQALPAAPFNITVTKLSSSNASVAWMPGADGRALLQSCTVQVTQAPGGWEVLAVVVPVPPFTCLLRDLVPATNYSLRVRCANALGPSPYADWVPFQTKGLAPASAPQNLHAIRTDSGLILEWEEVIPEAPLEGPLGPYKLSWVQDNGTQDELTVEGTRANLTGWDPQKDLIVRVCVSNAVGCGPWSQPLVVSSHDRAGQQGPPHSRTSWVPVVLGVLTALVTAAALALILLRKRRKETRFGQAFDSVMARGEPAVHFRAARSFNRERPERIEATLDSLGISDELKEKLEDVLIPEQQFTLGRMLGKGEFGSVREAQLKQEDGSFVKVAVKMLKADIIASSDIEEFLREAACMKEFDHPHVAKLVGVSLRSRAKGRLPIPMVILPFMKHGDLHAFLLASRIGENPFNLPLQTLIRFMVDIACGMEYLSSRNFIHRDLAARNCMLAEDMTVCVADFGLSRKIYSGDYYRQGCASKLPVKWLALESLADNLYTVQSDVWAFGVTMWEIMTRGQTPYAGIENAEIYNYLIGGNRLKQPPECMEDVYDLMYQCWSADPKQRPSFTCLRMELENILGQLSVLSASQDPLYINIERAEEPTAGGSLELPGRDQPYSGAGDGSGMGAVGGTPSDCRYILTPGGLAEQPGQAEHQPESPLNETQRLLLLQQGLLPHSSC
# Procedure, shortened: (§1)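 HTRF 665/620 nm read-out after streptavidin-XL665/anti-phosphotyrosine cryptate detection (1 h RT). Final reaction: 5 nM AXL or 1 nM TYRO3/MER, 800 nM TK substrate-biotin, 700 μM ATP, pH 7.4 HEPES buffer, 1% DMSO, 2 h RT, after 1 h enzyme–compound preincubation.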
# Axl = molecular target: T2, Axl (Homo sapiens, UniProt P30530); experiment: HTRF KinEASE-TK biochemical potency assay, AXL; parameters: purchased Invitrogen; settings: 5 nM AXL, 700 μM ATP, 800 nM TK Substrate-biotin
# T2 sequence (P30530 26-894): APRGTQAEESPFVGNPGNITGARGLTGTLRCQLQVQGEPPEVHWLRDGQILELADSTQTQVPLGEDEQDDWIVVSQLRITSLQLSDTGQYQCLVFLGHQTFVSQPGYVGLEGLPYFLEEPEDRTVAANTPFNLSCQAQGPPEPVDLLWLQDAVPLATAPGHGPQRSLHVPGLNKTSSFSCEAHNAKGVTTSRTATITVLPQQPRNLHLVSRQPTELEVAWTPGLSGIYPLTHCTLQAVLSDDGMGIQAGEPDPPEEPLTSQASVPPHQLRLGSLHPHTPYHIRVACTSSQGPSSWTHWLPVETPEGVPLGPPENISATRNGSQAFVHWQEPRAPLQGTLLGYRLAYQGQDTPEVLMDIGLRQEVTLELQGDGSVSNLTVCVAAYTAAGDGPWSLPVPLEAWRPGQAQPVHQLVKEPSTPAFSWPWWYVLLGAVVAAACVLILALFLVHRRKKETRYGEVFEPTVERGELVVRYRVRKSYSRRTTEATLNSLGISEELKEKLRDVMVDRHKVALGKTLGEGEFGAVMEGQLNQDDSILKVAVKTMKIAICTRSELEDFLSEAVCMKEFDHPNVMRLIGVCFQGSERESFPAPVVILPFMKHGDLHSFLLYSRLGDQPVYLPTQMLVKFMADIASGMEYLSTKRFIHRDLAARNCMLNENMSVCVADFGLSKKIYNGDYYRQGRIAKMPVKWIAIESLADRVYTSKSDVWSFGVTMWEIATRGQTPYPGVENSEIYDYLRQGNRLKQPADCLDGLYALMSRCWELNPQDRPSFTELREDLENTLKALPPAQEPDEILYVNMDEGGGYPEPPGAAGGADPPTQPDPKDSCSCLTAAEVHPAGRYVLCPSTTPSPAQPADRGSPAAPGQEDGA
# Procedure, shortened: as §1
IC50 (human TYRO3),IC50 (Axl),SMILES
< 100 nM,< 100 nM,"CC1(N2CCC[C@@H]2CO)CCc2ccc(-c3cnc4[nH]nc(-c5ccc(S(=O)(=O)C6CC6)cc5)c4c3)cc2CC1 (stereo partly drawn) [Example 3, [(2R)-1-(2-{3-[4-(Cyclopropanesulfonyl)phenyl]-1H-pyrazolo[3,4-b]pyridin-5-yl}-7-methyl-6,7,8,9-tetrahydro-5H-benzo[7]annulen-7-yl)pyrrolidin-2-yl]methanol]"
100 to 1000 nM,< 100 nM,"C[C@@H]1CCCN1C1CCc2ccc(-c3cnc4[nH]nc(-c5cnc(C(C)(C)O)c(Cl)c5)c4c3)cc2CC1 (stereo partly drawn) [Example 65, 2-[3-Chloro-5-(5-{7-[(2R)-2-methylpyrrolidin-1-yl]-6,7,8,9-tetrahydro-5H-benzo[7]annulen-2-yl}-1H-pyrazolo[3,4-b]pyridin-3-yl)pyridin-2-yl]propan-2-ol]"
< 100 nM,< 100 nM,"CCC1(N2CCC[C@@H]2CO)CCc2ccc(-c3cnc4[nH]nc(-c5ccc(C(N)=O)c(Cl)c5)c4c3)cc2CC1 (stereo partly drawn) [Example 74, 2-Chloro-4-(5-{7-ethyl-7-[(2R)-2-(hydroxymethyl)pyrrolidin-1-yl]-6,7,8,9-tetrahydro-5H-benzo[7]annulen-2-yl}-1H-pyrazolo[3,4-b]pyridin-3-yl)benzamide]"
100 to 1000 nM,< 100 nM,"C[C@@H]1CCCN1C1CCc2ccc(-c3cnc4[nH]nc(-c5ccc(C6(O)CCOC6)c(Cl)c5)c4c3)cc2CC1 (stereo partly drawn) [Example 63, 3-[2-Chloro-4-(5-{7-[(2R)-2-methylpyrrolidin-1-yl]-6,7,8,9-tetrahydro-5H-benzo[7]annulen-2-yl}-1H-pyrazolo[3,4-b]pyridin-3-yl)phenyl]oxolan-3-ol]"
100 to 1000 nM,< 100 nM,"C[C@@H]1CCCN1C1CCc2ccc(-c3cnc4[nH]nc(-c5ccc(C6(O)COC6)c(Cl)c5)c4c3)cc2CC1 (stereo partly drawn) [Example 64, 3-[2-Chloro-4-(5-{7-[(2R)-2-methylpyrrolidin-1-yl]-6,7,8,9-tetrahydro-5H-benzo[7]annulen-2-yl}-1H-pyrazolo[3,4-b]pyridin-3-yl)phenyl]oxetan-3-ol]"
< 100 nM,< 100 nM,"C[C@@H]1CCCN1C1(C)CCc2ccc(-c3cnc4[nH]nc(-c5ccc(S(=O)(=O)C6CC6)cc5)c4c3)cc2CC1 (stereo partly drawn) [Example 1, 3-(4-(Cyclopropylsulfonyl)phenyl)-5-(7-methyl-7-((R)-2-methylpyrrolidin-1-yl)-6,7,8,9-tetrahydro-5H-benzo[7]annulen-2-yl)-1H-pyrazolo[3,4-b]pyridine]"
< 100 nM,< 100 nM,"NC(=O)c1ccc(-c2n[nH]c3ncc(-c4ccc5c(c4)CCC(N4CCCC4)CC5)cc23)cc1C(F)(F)F (stereo not drawn) [Example 80, 4-(5-(7-(Pyrrolidin-1-yl)-6,7,8,9-tetrahydro-5H-benzo[7]annulen-2-yl)-1H-pyrazolo[3,4-b]pyridin-3-yl)-2-(trifluoromethyl)benzamide]"
< 100 nM,< 100 nM,"Cc1cc(-c2n[nH]c3ncc(-c4ccc5c(c4)CCC(N4CCCC4)CC5)cc23)cc(F)c1C(N)=O (stereo not drawn) [Example 79, 2-Fluoro-6-methyl-4-(5-(7-(pyrrolidin-1-yl)-6,7,8,9-tetrahydro-5H-benzo[7]annulen-2-yl)-1H-pyrazolo[3,4-b]pyridin-3-yl)benzamide]"
< 100 nM,< 100 nM,"C[C@@H]1CCCN1C1(C)CCc2ccc(-c3cnc4[nH]nc(-c5ccc(S(N)(=O)=O)c(Cl)c5)c4c3)cc2CC1 (stereo partly drawn) [Example 93, 2-Chloro-4-(5-(7-methyl-7-((R)-2-methylpyrrolidin-1-yl)-6,7,8,9-tetrahydro-5H-benzo[7]annulen-2-yl)-1H-pyrazolo[3,4-b]pyridin-3-yl)benzenesulfonamide]"
100 to 1000 nM,< 100 nM,"CC(C)NC(=O)c1ccc(-c2n[nH]c3ncc(-c4ccc5c(c4)CCC(C)(N4CCC[C@H]4C)CC5)cc23)cc1 (stereo partly drawn) [Example 70, 4-(5-{7-Methyl-7-[(2R)-2-methylpyrrolidin-1-yl]-6,7,8,9-tetrahydro-5H-benzo[7]annulen-2-yl}-1H-pyrazolo[3,4-b]pyridin-3-yl)-N-(propan-2-yl)benzamide]"
100 to 1000 nM,< 100 nM,"C[C@@H]1CCCN1C1(C)CCc2ccc(-c3cnc4[nH]nc(-c5ccc(C(=O)NC6CC6)cc5)c4c3)cc2CC1 (stereo partly drawn) [Example 69, N-Cyclopropyl-4-(5-{7-methyl-7-[(2R)-2-methylpyrrolidin-1-yl]-6,7,8,9-tetrahydro-5H-benzo[7]annulen-2-yl}-1H-pyrazolo[3,4-b]pyridin-3-yl)benzamide]"
< 100 nM,< 100 nM,"NS(=O)(=O)c1ccc(-c2n[nH]c3ncc(-c4ccc5c(c4)CC[C@@H](N4CCCC4)CC5)cc23)cc1Cl [Example 91, (S)-2-Chloro-4-(5-(7-(pyrrolidin-1-yl)-6,7,8,9-tetrahydro-5H-benzo[7]annulen-2-yl)-1H-pyrazolo[3,4-b]pyridin-3-yl)benzenesulfonamide]"
< 100 nM,< 100 nM,"CCC1(N2CCC[C@H]2CO)CCc2ccc(-c3cnc4[nH]nc(-c5ccc(C(N)=O)c(Cl)c5)c4c3)cc2CC1 (stereo partly drawn) [Example 75, 2-Chloro-4-(5-{7-ethyl-7-[(2S)-2-(hydroxymethyl)pyrrolidin-1-yl]-6,7,8,9-tetrahydro-5H-benzo[7]annulen-2-yl}-1H-pyrazolo[3,4-b]pyridin-3-yl)benzamide]"
< 100 nM,< 100 nM,"Cc1cc(-c2n[nH]c3ncc(-c4ccc5c(c4)CC[C@@H](N4CCCC4)CC5)cc23)cc(F)c1C(N)=O [Example 83, (S)-2-Fluoro-6-methyl-4-(5-(7-(pyrrolidin-1-yl)-6,7,8,9-tetrahydro-5H-benzo[7]annulen-2-yl)-1H-pyrazolo[3,4-b]pyridin-3-yl)benzamide]"
> 1000 nM,< 100 nM,"Cc1cc2c(cc1-c1cnc3[nH]nc(-c4ccc(C(C)(C)O)c(Cl)c4)c3c1)CCC(N1CCC[C@H]1C)CC2 (stereo partly drawn) [Example 90, 2-[2-Chloro-4-(5-{3-methyl-7-[(2R)-2-methylpyrrolidin-1-yl]-6,7,8,9-tetrahydro-5H-benzo[7]annulen-2-yl}-1H-pyrazolo[3,4-b]pyridin-3-yl)phenyl]propan-2-ol]"
< 100 nM,< 100 nM,"O=C(c1ccc(-c2n[nH]c3ncc(-c4ccc5c(c4)CC[C@@H](N4CCCC4)CC5)cc23)cc1Cl)N1CCNCC1 [Example 82, (S)-(2-Chloro-4-(5-(7-(pyrrolidin-1-yl)-6,7,8,9-tetrahydro-5H-benzo[7]annulen-2-yl)-1H-pyrazolo[3,4-b]pyridin-3-yl)phenyl)(piperazin-1-yl)methanone]"
100 to 1000 nM,< 100 nM,"C[C@@H]1CCCN1C1(C)CCc2ccc(-c3cnc4[nH]nc(-c5ccc(C(=O)NC6CCOCC6)cc5)c4c3)cc2CC1 (stereo partly drawn) [Example 88, 4-(5-(7-Methyl-7-((R)-2-methylpyrrolidin-1-yl)-6,7,8,9-tetrahydro-5H-benzo[7]annulen-2-yl)-1H-pyrazolo[3,4-b]pyridin-3-yl)-N-(tetrahydro-2H-pyran-4-yl)benzamide]"
< 100 nM,< 100 nM,"C[C@@H]1CCCN1C1(C)CCc2ccc(-c3cnc4[nH]nc(-c5ccc(C(N)=O)c(Cl)c5)c4c3)cc2CC1 (stereo partly drawn) [Example 68, 2-Chloro-4-(5-{7-methyl-7-[(2R)-2-methylpyrrolidin-1-yl]-6,7,8,9-tetrahydro-5H-benzo[7]annulen-2-yl}-1H-pyrazolo[3,4-b]pyridin-3-yl)benzamide]"
